One block for each compound: values may come before it.
Legend:
[1] = biological target: JAK2 (Homo sapiens (Human), UniProt O60674); test: Jak Biochemical HTRF Assay (JAK2); conditions: recombinant GST-tagged catalytic domain, [ATP] 8.5 μM
[2] = biological target: JAK3 (Homo sapiens (Human), UniProt P52333); test: Jak Biochemical HTRF Assay (JAK3); conditions: recombinant GST-tagged catalytic domain, [ATP] 2.9 μM
Chain of JAK3 (P52333 822-1111): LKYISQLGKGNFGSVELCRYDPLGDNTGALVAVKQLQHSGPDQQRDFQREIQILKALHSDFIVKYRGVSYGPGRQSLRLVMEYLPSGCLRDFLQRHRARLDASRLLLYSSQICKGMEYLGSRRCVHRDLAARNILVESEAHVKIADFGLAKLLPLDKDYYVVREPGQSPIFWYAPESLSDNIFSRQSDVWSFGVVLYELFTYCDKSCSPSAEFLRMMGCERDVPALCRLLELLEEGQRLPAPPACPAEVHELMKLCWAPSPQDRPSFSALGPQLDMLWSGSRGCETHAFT

Chain of JAK2 (O60674 849-1124): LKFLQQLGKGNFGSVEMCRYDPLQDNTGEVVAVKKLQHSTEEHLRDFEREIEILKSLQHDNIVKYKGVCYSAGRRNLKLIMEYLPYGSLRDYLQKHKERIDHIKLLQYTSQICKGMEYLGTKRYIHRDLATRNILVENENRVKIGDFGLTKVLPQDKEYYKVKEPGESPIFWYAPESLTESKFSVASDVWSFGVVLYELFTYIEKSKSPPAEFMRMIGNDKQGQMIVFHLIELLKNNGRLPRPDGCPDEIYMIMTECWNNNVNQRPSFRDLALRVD

Structure (SMILES): CCOC(=O)c1c[nH]c2ncnc(-c3ccc(CC#N)nc3)c12 [Example 1-104, ethyl 4-[6-(cyanomethyl)pyridin-3-yl]-7H-pyrrolo[2,3-d]pyrimidine-5-carboxylate]
IC50 ([1]; given as range class): > 500 nM
IC50 ([2]; given as range class): 10 to 500 nM

Structure (SMILES): C=C(C)C(=O)N(C)c1cccc(-c2ncnc3[nH]cc(C4CCOCC4)c23)c1 [Example 24, N-Methyl-N-(3-(5-(tetrahydro-2H-pyran-4-yl)-7H-pyrrolo[2,3-d]pyrimidin-4-yl)phenyl)methacrylamide]
IC50 ([1]; given as range class): > 500 nM
IC50 ([2]; given as range class): > 500 nM

Structure (SMILES): CCOC(=O)c1c[nH]c2ncnc(-c3ccc(S(C)(=O)=O)cc3)c12 [Example 1-11, ethyl 4-[4-(methylsulfonyl)phenyl]-7H-pyrrolo[2,3-d]pyrimidine-5-carboxylate]
IC50 ([1]; given as range class): > 500 nM
IC50 ([2]; given as range class): 10 to 500 nM

Structure (SMILES): CCOC(=O)c1c[nH]c2ncnc(-c3cccc(C(=O)OC)c3)c12 [Example 1-8, ethyl 4-[3-(methoxycarbonyl)phenyl]-7H-pyrrolo[2,3-d]pyrimidine-5-carboxylate]
IC50 ([1]; given as range class): > 500 nM
IC50 ([2]; given as range class): 10 to 500 nM

Structure (SMILES): CCOC(=O)c1c[nH]c2ncnc(C3=CCC(O)CC3)c12 (centres unmarked) [Example 1-86, ethyl 4-(4-hydroxycyclohex-1-en-1-yl)-7H-pyrrolo[2,3-d]pyrimidine-5-carboxylate]
IC50 ([1]; given as range class): 10 to 500 nM
IC50 ([2]; given as range class): 10 to 500 nM

Structure (SMILES): CCOC(=O)c1c[nH]c2ncnc(C3=CCC(C#N)CC3)c12 (centres unmarked) [Example 1-90, ethyl 4-(4-cyanocyclohex-1-en-1-yl)-7H-pyrrolo[2,3-d]pyrimidine-5-carboxylate]
IC50 ([1]; given as range class): 10 to 500 nM
IC50 ([2]; given as range class): 10 to 500 nM

Structure (SMILES): CCOC(=O)c1c[nH]c2ncnc(-c3cccc(F)c3)c12 [Example 1-42, ethyl 4-(3-fluorophenyl)-7H-pyrrolo[2,3-d]pyrimidine-5-carboxylate]
IC50 [1]: 121 nM
IC50 [2]: 9 nM

Structure (SMILES): CCOC(=O)c1c[nH]c2ncnc(-c3ccc(C)cc3)c12 [Example 1-37, ethyl 4-(4-methylphenyl)-7H-pyrrolo[2,3-d]pyrimidine-5-carboxylate]
IC50 ([1]; given as range class): 10 to 500 nM
IC50 ([2]; given as range class): 10 to 500 nM

Structure (SMILES): CCOC(=O)c1c[nH]c2ncnc(-c3ccc4c(c3)CCN(C(=O)OC(C)(C)C)C4)c12 [Example 1-74, tent-butyl 6-[5-(ethoxycarbonyl)-7H-pyrrolo[2,3-d]pyrimidin-4-yl]-3,4-dihydroisoquinoline-2(1H)-carboxylate]
IC50 ([1]; given as range class): > 500 nM
IC50 ([2]; given as range class): 10 to 500 nM

Structure (SMILES): CCOC(=O)c1c[nH]c2ncnc(-c3ccc(C(C)(C)O)cc3)c12 [Example 1-107, ethyl 4-[4-(1-hydroxy-1-methylethyl)phenyl]-7H-pyrrolo[2,3-d]pyrimidine-5-carboxylate]
IC50 ([1]; given as range class): 10 to 500 nM
IC50 ([2]; given as range class): 10 to 500 nM

Second part, the compound after the results:

IC50 [1]: > 1500 nM
IC50 [2]: 0.11 nM
Structure (SMILES): C=C(C)C(=O)Nc1cc(-c2ncnc3[nH]cc(C(=O)OCC)c23)ccc1O [Example 4-31, ethyl 4-{4-hydroxy-3-[(2-methylacryloyl)amino]phenyl}-7H-pyrrolo[2,3-d]pyrimidine-5-carboxylate]

IC50 ([1]; given as range class): > 500 nM
IC50 ([2]; given as range class): 10 to 500 nM
Structure (SMILES): C=C(C)C(=O)Nc1cccc(-c2ncnc3[nH]cc(C(=O)OCC)c23)c1C [Example 4-13, ethyl 4-{2-methyl-3-[(2-methylacryloyl)amino]phenyl}-7H-pyrrolo[2,3-d]pyrimidine-5-carboxylate]

IC50 ([1]; given as range class): > 500 nM
IC50 ([2]; given as range class): 10 to 500 nM
Structure (SMILES): CCOC(=O)c1c[nH]c2ncnc(-c3cccc(-c4nc(Cl)ns4)c3)c12 [Example 7-2, ethyl 4-(3-(3-chloro-1,2,4-thiadiazol-5-yl)phenyl)-7H-pyrrolo[2,3-d]pyrimidine-5-carboxylate]

IC50 ([1]; given as range class): > 500 nM
IC50 ([2]; given as range class): 10 to 500 nM
Structure (SMILES): C=C(C)C(=O)Nc1cccc(-c2ncnc3[nH]cc(-c4ccncc4)c23)c1 [Example 21-3, N-(3-(5-(pyridin-4-yl)-7H-pyrrolo[2,3-d]pyrimidin-4-yl)phenyl)methacrylamide]

IC50 ([1]; given as range class): > 500 nM
IC50 ([2]; given as range class): 10 to 500 nM
Structure (SMILES): COc1ccccc1-c1c[nH]c2ncnc(-c3cccc(C(=O)N(C)C)c3)c12 [Example 33-5, 3-[5-(2-methoxyphenyl)-7H-pyrrolo[2,3-d]pyrimidin-4-yl]-N,N-dimethylbenzamide]

IC50 ([1]; given as range class): > 500 nM
IC50 ([2]; given as range class): 10 to 500 nM
Structure (SMILES): CCOC(=O)c1c[nH]c2ncnc(-c3cccc(NC(=O)/C=C\c4ccccc4OC)c3)c12 [Example 5-23, ethyl 4-(3-{[(2Z)-3-(2-methoxyphenyl)prop-2-enoyl]amino}phenyl)-7H-pyrrolo[2,3-d]pyrimidine-5-carboxylate]

IC50 [1]: > 1500 nM
IC50 [2]: 10.3 nM
Structure (SMILES): C=C(C)C(=O)Nc1cccc(-c2ncnc3[nH]cc(-c4cnc(C)s4)c23)c1 [Example 21-6, N-(3-(5-(2-methylthiazol-5-yl)-7H-pyrrolo[2,3-d]pyrimidin-4-yl)phenyl)methacrylamide]

IC50 ([1]; given as range class): 10 to 500 nM
IC50 ([2]; given as range class): 10 to 500 nM
Structure (SMILES): COc1ncccc1-c1c[nH]c2ncnc(-c3ccccc3)c12 [Example 32-1, 5-(2-Methoxypyridin-3-yl)-4-phenyl-7H-pyrrolo[2,3-d]pyrimidine]

IC50 [1]: > 1500 nM
IC50 [2]: 0.14 nM
Structure (SMILES): C=C(C)C(=O)Nc1cc(-c2ncnc3[nH]cc(C(=O)OCC)c23)ccc1C#N [Example 4-27, ethyl 4-{4-cyano-3-[(2-methylacryloyl)amino]phenyl}-7H-pyrrolo[2,3-d]pyrimidine-5-carboxylate]

IC50 [1]: > 1500 nM
IC50 [2]: 0.11 nM
Structure (SMILES): C=C(C)C(=O)Nc1cc(-c2ncnc3[nH]cc(C(=O)OCC)c23)ccc1OC [Example 4-17, ethyl 4-{4-methoxy-3-[(2-methylacryloyl)amino]phenyl}-7H-pyrrolo[2,3-d]pyrimidine-5-carboxylate]

IC50 [1]: > 1500 nM
IC50 [2]: 2 nM
Structure (SMILES): CCOC(=O)c1c[nH]c2ncnc(-c3cccc(NC(=O)/C=C/c4ccncc4)c3)c12 [Example 5-17, ethyl 4-(3-{[(2E)-3-pyridin-4-ylprop-2-enoyl]amino}phenyl)-7H-pyrrolo[2,3-d]pyrimidine-5-carboxylate]

IC50 [1]: > 1500 nM
IC50 [2]: 0.07 nM
Structure (SMILES): C=C(C)C(=O)Nc1cc(-c2ncnc3[nH]cc(C(=O)OCC)c23)ccc1F [Example 4-16, ethyl 4-{4-fluoro-3-[(2-methylacryloyl)amino]phenyl}-7H-pyrrolo[2,3-d]pyrimidine-5-carboxylate]

Source: US8993756B2 (Merck Sharp & Dohme Corp., priority 2011, dated 2015)
